Laboratory results reported in patent publication US9486506B2 (Novo Nordisk A/S, priority 2011, dated 2016).
Numbered stars: 1 amine (or outer) side, 2 acyl side, 3 side chain; on linkers, the order of the positions; unused ones are H or OH. Side chains are listed from the residue outwards. Peptide text beside a SMILES is read from it. * marks the point of attachment. C18 diacid = O=C(O)CCCCCCCCCCCCCCCCC(=O)*; γGlu = O=C(O)[C@H](CCC(=O)[*:2])N[*:1]; AEEA = NCCOCCOCC(=O)O

Tests used:
[1] = target: T1, glucagon receptor (Homo sapiens, UniProt P47871); experiment: Assay (I) Glucagon activity (cAMP biosensor, FLIPR); type: cell-based
T1 construct: expressed in transfected cells

[2] = Assay (XI) Pharmacokinetic study in minipigs; type: in vivo, Göttingen minipigs; conditions: both sexes, Göttingen, minipig, plasma, iv, i.v. administration, terminal half-life, read-out: iv PK minipig [T½] (converted)
Protocol: Buffer: • 50 mM Dinatriumphosphatdihydrat • 184 mM Propylenglycol • 58 mM Phenol • pH adjusted to 8.15 with H3PO4. In cases where pH was adjusted to 8.15 after re-suspension of analogues, 0.2 M NaOH was used. Assay (XI) Pharmacokinetic Study in Minipigs
This is done in a pharmacokinetic (PK) study, whereamong other parameters the terminal half-life and the clearance of the derivative in question is determined. Increasing the terminal half-life and decreasing the clearance means that the compound of study is eliminated slower from the body.
Male or female Göttingen minipigs were obtained from Ellegaard Göttingen Minipigs (Dalmose, Denmark) approximately 7-14 months of age and weighing from approximately 16-35 kg were used in the studies. The minipigs were housed either individually (pigs with permanent catheters) or in a group and fed restrictedly once or twice daily with SDS minipig diet (Special Diets Services, Essex, UK). In some studies two permanent central venous catheters were implanted in vena cava caudalis or cranialis in each animal after at least 2 weeks of acclimatisation. […] On each dosing occasion these pigs were instrumented with a venflon in one ear vein through which the derivatives were dosed. Blood sampling was done by venipuncture in v. jugularis or v. cava cranialis
The animals were either unfasted or fasted for approximately 18 h before dosing and from 0 to 4 h after dosing, but had ad libitum access to water during the whole period.
Intravenous injections (the volume corresponding to usually 2-3 nmol/kg, for example 0.1 ml/kg) of the compounds were given through one catheter or through the venflon, and blood was sampled at predefined time points for up till 13 days post dosing (preferably through the other catheter or by venipuncture). Blood samples (for example 0.8 ml) were collected in tubes with EDTA buffer (8 mM) (sometimes aprotinin 500 KIU/ml blood was added) and then centrifuged at 4° C. and 1942 G for 10 minutes. […] Based on these measurements, time-plasma concentration profiles for the compound of study are plotted and a so-called non-compartmental pharmacokinetic analysis of the data is performed in WinNonlin v. 5.0 or Phoenix v. 6.2 (Pharsight Inc., Mountain View, Calif., USA) or other relevant software for PK analysis. For most compounds, the terminal part of the plasma-concentration profiles will be linear when drawn in a semi-logarithmic plot, reflecting that after the initial distribution, drug is removed from the body at a constant fractional rate. The rate (lambda Z or is equal to minus the slope of the terminal part of the plot. From this rate, also the terminal half-life may be calculated, as t½=ln(2)/λz (see, e.g., Johan Gabrielsson and Daniel Weiner: Pharmacokinetics and Pharmacodynamic Data Analysis. Concepts & Applications, 3rd Ed., Swedish Pharmaceutical Press, Stockholm (2000)).
Clearance is defined as the dose (D) divided by area under the curve (AUC) on the plasmaconcentration versus time profile (Rowland, M and Tozer T N: Clinical Pharmacokinetics: Concepts and Applications, 3rd edition, 1995 Williams Wilkins)

[3] = Assay (X) Chemical stability assessment by RP-UPLC; type: physicochemical; conditions: pH 8.15, 14 days at 37° C. vs 5° C., 333 μM

T1 sequence (P47871 26-477): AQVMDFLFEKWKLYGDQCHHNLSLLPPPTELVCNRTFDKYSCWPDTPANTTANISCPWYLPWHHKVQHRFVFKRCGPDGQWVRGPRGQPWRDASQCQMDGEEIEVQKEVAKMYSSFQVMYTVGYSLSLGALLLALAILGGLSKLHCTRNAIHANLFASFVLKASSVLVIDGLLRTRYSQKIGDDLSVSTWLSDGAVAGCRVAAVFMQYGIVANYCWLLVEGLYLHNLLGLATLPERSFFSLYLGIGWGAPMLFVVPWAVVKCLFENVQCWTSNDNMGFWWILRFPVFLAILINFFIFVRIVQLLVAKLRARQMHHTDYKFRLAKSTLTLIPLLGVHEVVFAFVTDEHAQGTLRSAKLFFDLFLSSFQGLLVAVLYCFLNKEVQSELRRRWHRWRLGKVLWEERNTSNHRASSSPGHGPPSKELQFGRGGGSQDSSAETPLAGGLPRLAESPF

SMILES	EC50 [1] [pM]	half-life [2] [h]	Chemical stability [Purity loss/14 days 37 C.] [3] [%]
CC(C)C[C@H](NC(=O)[C@H](CC(=O)O)NC(=O)[C@H](CC(C)C)NC(=O)[C@H](Cc1ccc(O)cc1)NC(=O)[C@H](CCCCN)NC(=O)[C@H](CO)NC(=O)[C@@H](NC(=O)[C@H](CC(=O)O)NC(=O)[C@H](CO)NC(=O)[C@@H](NC(=O)[C@H](Cc1ccccc1)NC(=O)[C@@H](NC(=O)CNC(=O)[C@H](CCC(N)=O)NC(=O)[C@H](CO)NC(=O)[C@@H](N)Cc1c[nH]cn1)[C@@H](C)O)[C@@H](C)O)C(C)C)C(=O)N[C@@H](CCCNC(=N)N)C(=O)N[C@@H](CCCNC(=N)N)C(=O)N[C@@H](C)C(=O)N[C@@H](CCC(N)=O)C(=O)N[C@@H](CCC(=O)O)C(=O)N[C@@H](Cc1ccccc1)C(=O)N[C@H](C(=O)N[C@@H](CCCCNC(=O)CC[C@H](NC(=O)COCCOCCNC(=O)COCCOCCNC(=O)CC[C@H](NC(=O)CC[C@H](NC(=O)CCCCCCCCCCCCCCCCC(=O)O)C(=O)O)C(=O)O)C(=O)O)C(=O)N[C@@H](Cc1c[nH]c2ccccc12)C(=O)N[C@@H](CC(C)C)C(=O)N[C@@H](CC(C)C)C(=O)N[C@@H](CO)C(=O)N[C@H](C(=O)O)[C@@H](C)O)C(C)C [Example 63, N^ε24-[(4S)-4-carboxy-4-[[2-[2-[2-[[2-[2-[2-[[(4S)-4-carboxy-4-[[(4S)-4-carboxy-4-(17-carboxyheptadecanoylamino)butanoyl]amino]butanoyl]amino]ethoxy]ethoxy]acetyl]amino]ethoxy]ethoxy]acetyl]amino]butanoyl]-[Val10,Leu16,Glu21,Lys24,Leu27,Ser28]-Glucagon] (H-HSQGTFTSDVSKYLDLRRAQEFVK([γGlu-AEEA-AEEA-γGlu-γGlu-C18 diacid])WLLST-OH)	88	63.7	4.1
CC(C)C[C@H](NC(=O)[C@H](CC(=O)O)NC(=O)[C@H](CC(C)C)NC(=O)[C@H](Cc1ccc(O)cc1)NC(=O)[C@H](CCCCN)NC(=O)[C@H](CO)NC(=O)[C@H](Cc1ccc(O)cc1)NC(=O)[C@H](CC(=O)O)NC(=O)[C@H](CO)NC(=O)[C@@H](NC(=O)[C@H](Cc1ccccc1)NC(=O)[C@@H](NC(=O)CNC(=O)[C@H](CCC(N)=O)NC(=O)[C@H](CO)NC(=O)[C@@H](N)Cc1c[nH]cn1)[C@@H](C)O)[C@@H](C)O)C(=O)N[C@@H](CCCNC(=N)N)C(=O)N[C@@H](CCCNC(=N)N)C(=O)N[C@@H](C)C(=O)N[C@@H](CCC(N)=O)C(=O)N[C@@H](CC(=O)O)C(=O)N[C@@H](Cc1ccccc1)C(=O)N[C@H](C(=O)N[C@@H](CCCCNC(=O)CC[C@H](NC(=O)CC[C@H](NC(=O)CC[C@H](NC(=O)CC[C@H](NC(=O)CCCCCCCCCCCCCCCCC(=O)O)C(=O)O)C(=O)O)C(=O)O)C(=O)O)C(=O)N[C@@H](Cc1c[nH]c2ccccc12)C(=O)N[C@@H](CC(C)C)C(=O)N[C@@H](CC(C)C)C(=O)N[C@@H](CO)C(=O)N[C@H](C(=O)O)[C@@H](C)O)C(C)C [Example 80, N^ε24-[(4S)-4-carboxy-4-[[(4S)-4-carboxy-4-[[(4S)-4-carboxy-4-[[(4S)-4-carboxy-4-(17-carboxyheptadecanoylamino)butanoyl]amino]butanoyl]amino]butanoyl]amino]butanoyl]-[Leu16,Lys24,Leu27,Ser28]-Glucagon]	126	60.9	4.5
